Measurements: patent US12091402B2 (Avilar Therapeutics, Inc., priority 2021, dated 2024)

Experiments:
[1] = system: HepG2 cells; assay: Cellular degradation assay of anti-DNP-AF488 antibody; format: cell-based; details: 0.2 μM compound, 1 μM anti-DNP-AF488, 16 hours uptake then wash, FIG. 3
Description: To observe degradation of IgG in cells, a mixture of fluorescently labeled DNP antibody and compound are added to HepG2 cells and cellular uptake occurs over 16 hours. Cells are then washed to remove extracellular antibody and compound and samples are taken at various time points after uptake to detect levels of intact and/or proteolytic fragments of the antibody heavy and light chains over time as a kinetic measurement of antibody degradation.
HepG2 cells were seeded in DMEM supplemented with 10% FBS into a 12-well plate at a final amount of 20,000 cells per well. After about 18 hours incubation, 1 μM anti-DNP-AF488 antibody and/or 0.2 μM Compound 28 was added to the cells and incubated for 16 hours. The next day, cells were washed once with cell culture media and replaced with cell culture medium lacking anti-DNP-AF488 antibody or Compound 28 and incubated for 0, 1, 2, 4, and 8 hours, respectively. Cells were washed and lysed in RIPA buffer with protease inhibitors. Cell lysates were separated by SDS-PAGE and the fluorescent anti-DNP-AF488 antibody degradation products were visualized by the iBright 1500 gel reader (ThermoFisher). Intracellular heavy and light chains of DNP-IgG are observed after 16 hours of uptake into HepG2 cells. […]

[2] = system: DNP-IgG; assay: Colocalization imaging of DNP-IgG uptake (Example 4, FIG. 11); format: cell-based
[3] = system: HepG2 cells; assay: Cellular uptake assay of AF488-labeled antibody (HepG2); format: cell-based
Summary of the method: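 HepG2 cells given 100 nM AF488-labeled human IgG or DNP antibody plus serial dilutions of matching degrader (0.1% DMSO final), 6 h at 37° C. Methanol-fixed, DAPI-stained and imaged by high-content analysis. Value is the fraction of AF488-positive cells over total DAPI-counted cells.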

[4] = system: HepG2 cells; assay: Cellular co-localization study (LAMP2 immunofluorescence); format: cell-based; details: 100 nM compound, 100 nM AF488-labeled DNP antibodies, 8 hours, FIG. 4
Description: To confirm that DNP-IgG was trafficked to the lysosome following uptake by the HepG2 cells, cells were stained with the lysosomal marker LAMP2, and the subcellular location of AF488-labeled DNP-IgG was visualized by immunofluorescence microscopy.
HepG2 cells were plated in DMEM supplemented with 10% FBS incubated for approximately 18 hours at 37° C./5% CO2. AF488-labeled DNP antibodies (100 nM) and either DMSO or 100 nM of Compound 28 were added to the cells and incubated at 37° C. for an additional 8 hours. Cells were fixed with 100% methanol for 20 minutes at −20° C. followed by incubation with blocking buffer (1×PBS containing 5% normal goat serum and 0.1% Triton X-100) for 1 hour at room temperature. Cells were stained with anti-LAMP2 (Abcam) at 4° C. for about 18 hours followed by treatment with goat anti-mouse IgG-AF647 for 2 hours at room temperature. Nuclei were stained with DAPI. Pictures were taken on a Leica fluorescence microscope at 40× magnification.

[5] = molecular target: T1, ASGPR receptor on the cell surface (HepG2 cells) (Homo sapiens, UniProt P07306); assay: Ternary complex formation assay (flow cytometry, HepG2); format: cell-based; details: HepG2 cells
T1 construct: host or cells: HepG2
T1 sequence (P07306 1-291): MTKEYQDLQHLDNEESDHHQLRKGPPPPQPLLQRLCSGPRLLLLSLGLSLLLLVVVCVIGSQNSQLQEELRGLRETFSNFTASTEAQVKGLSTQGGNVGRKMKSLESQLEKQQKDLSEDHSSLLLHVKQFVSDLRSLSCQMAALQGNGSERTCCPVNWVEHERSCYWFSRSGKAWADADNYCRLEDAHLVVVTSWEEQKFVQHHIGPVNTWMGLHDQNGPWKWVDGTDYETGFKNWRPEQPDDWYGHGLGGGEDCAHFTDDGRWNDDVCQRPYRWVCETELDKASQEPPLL
T1 sequence (P07307 1-311 partner): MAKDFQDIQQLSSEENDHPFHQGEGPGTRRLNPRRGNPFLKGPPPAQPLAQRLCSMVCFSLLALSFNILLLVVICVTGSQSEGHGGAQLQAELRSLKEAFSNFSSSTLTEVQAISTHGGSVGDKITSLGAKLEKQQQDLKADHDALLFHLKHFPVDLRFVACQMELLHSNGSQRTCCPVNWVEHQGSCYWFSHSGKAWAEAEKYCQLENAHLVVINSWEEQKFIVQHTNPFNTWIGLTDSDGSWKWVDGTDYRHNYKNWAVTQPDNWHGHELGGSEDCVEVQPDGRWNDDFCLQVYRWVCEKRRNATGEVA
Summary of the method: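 HepG2 cells (1×10^5/well) incubated 1 h at 4 °C with 100 nM AF488-labeled anti-human IgG plus serial IgG-based degrader, or 100 nM AF488 rabbit anti-DNP plus serial DNP-based degrader. After washing, cell-associated AF488 MFI read by flow cytometry; peak MFI marks optimal degrader concentration for ternary complex.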

[6] = molecular target: T2, ASGPR (Homo sapiens, UniProt P07306); assay: Affinity to ASGPR by surface plasmon resonance (SPR)
T2 sequence (P07306 1-291): T1 sequence (P07306 1-291)

[7] = system: IgG-AF488; assay: Western blot of IgG-AF488 degradation (Example 5, FIG. 10); format: cell-based
[8] = molecular target: T3, TNF (Homo sapiens, UniProt P01375); assay: Western blot of ASGPR mediated uptake of TNF (Example 12, FIG. 25); format: cell-based
T3 sequence (P01375 77-233 limits assumed): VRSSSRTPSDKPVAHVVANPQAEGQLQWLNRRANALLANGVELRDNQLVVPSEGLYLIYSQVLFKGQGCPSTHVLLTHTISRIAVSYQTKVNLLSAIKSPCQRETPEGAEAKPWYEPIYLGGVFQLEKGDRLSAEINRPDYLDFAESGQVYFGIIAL

[9] = molecular target: T3, TNF; assay: Western blot of TNF degradation over time (Example 11, FIG. 24); format: cell-based; details: 0.5 μM compound
[10] = molecular target: TNFα (Homo sapiens, UniProt P01375); assay: TNF FP assay; format: binding; details: TNF 20 nM, 25° C., 2 hours; read-out: TNFα FP IC50 KD
TNFα, sequence (P01375 77-233 limits assumed): as above
Description: TNF (20 nM) and Compound 36 in 47 mM HEPES pH 6.5, 47 mM NaCl, 0.9 mM EDTA, 0.007% Triton X-100 were incubated at 25° C. for 2 hours. Fluorescence data was read with an Envision and plotted versus Compound 36 concentration and fit to a single-site binding model. This assay was used to calculate the FP data in Table 7.

Compound | Loss of intact heavy chain of DNP-IgG observed after [1] [h] | Loss of intact light chain of DNP-IgG observed after [1] [h] | uptake of DNP-IgG (colocalization image) [2] | EC50, half-maximal concentration with respect to the peak ratio of antibody-positive cells (cellular uptake) ([3]; DNP-antibody, HepG2 cells, FIG. 2) [nM] | EC50 ([3]; Homo sapiens, HepG2, 6 h, read-out: Uptake Assay EC50 (nM)) [nM] | Uptake of DNP-IgG and co-localization with lysosomal marker LAMP2 [4] | EC50 ([5]; EC50, half-maximal concentration with respect to the peak MFI (ternary complex formation), AF488-labeled DNP antibody, FIG. 1) [nM] | EC50 ([5]; Ternary Complex EC50 (nM), 100 nM AF488-labeled antibody, 1 hour at 4° C., class symbols) [nM] | Kd [6] [nM] | degradation of IgG-AF488 (western blot) [7] | ASGPR mediated uptake of TNF (western blot) [8] | degradation of TNF over time (western blot) [9] | ASGPR kd ([6]; Table 7) [s⁻¹] | IC50 [10] [nM]
O=C(CCOCC(COCCC(=O)NCCOCCOCCOCCOC[C@H]1OC[C@@H](Nc2nc(Cl)ns2)[C@@H](O)[C@H]1O)NC(=O)COCCOCCOCCNc1ccc([N+](=O)[O-])cc1[N+](=O)[O-])NCCOCCOCCOCCOC[C@H]1OC[C@@H](Nc2nc(Cl)ns2)[C@@H](O)[C@H]1O [Compound 28, 3,3′-((2-(2-(2-(2-(2-((2,4-dinitrophenyl)amino)ethoxy)ethoxy)ethoxy)acetamido)propane-1,3-diyl)bis(oxy))bis(N-(1-((2R,3R,4R,5R)-5-((3-chloro-1,2,4-thiadiazol-5-yl)amino)-3,4-dihydroxytetrahydro-2H-pyran-2-yl)-2,5,8,11-tetraoxatridecan-13-yl)propanamide)] | 1 | 8 | uptake of DNP-IgG | 3.8 | < 100 | DNP-IgG was taken up into the cells and co-localized with the lysosomal marker LAMP2 | 4.7 | < 100 | < 100 | degradation of IgG-AF488 |  |  |  | 
O=C(CCOCC(COCCC(=O)NCCOCCOCCOCCOC[C@H]1OC[C@H](Nc2nccc(C(F)(F)F)n2)[C@@H](O)[C@H]1O)NC(=O)COCCOCCOCC(=O)N1CCN(Cc2ccc(-c3c[nH]c4ccncc34)c(OCCc3ccc(-c4cccc5ccncc45)cc3)c2)CC1)NCCOCCOCCOCCOC[C@H]1OC[C@H](Nc2nccc(C(F)(F)F)n2)[C@@H](O)[C@H]1O [Compound 36, 3,3′-((2-(2-(2-(2-(2-(4-(3-(4-(isoquinolin-8-yl)phenethoxy)-4-(1H-pyrrolo[3,2-c]pyridin-3-yl)benzyl)piperazin-1-yl)-2-oxoethoxy)ethoxy)ethoxy)acetamido)propane-1,3-diyl)bis(oxy))bis(N-(1-((2R,3R,4R,5S)-3,4-dihydroxy-5-((4-(trifluoromethyl)pyrimidin-2-yl)amino)tetrahydro-2H-pyran-2-yl)-2,5,8,11-tetraoxatridecan-13-yl)propanamide)] |  |  |  |  |  |  |  |  | < 1 |  | ASGPR mediated uptake of TNF | degradation of TNF | <0.01 | < 500
